The values below come from ChEMBL document CHEMBL1240295, “Specificity and mechanism of action of some commonly used protein kinase inhibitors” (Biochem J, 2000).

The term IC50 denotes the concentration that inhibits the measured activity by half. The low end stands for higher potency, the high end for lower potency. The inhibition is the change of the read-out against control, counted positive when it falls. A lower inhibition goes with a response near the control.

In assay [1] the target is [Pyruvate dehydrogenase (acetyl-transferring)] kinase isozyme 1, mitochondrial (Homo sapiens) (UniProt Q15118). The assay can be described thus: Inhibition of His-tagged human PDK1 expressed in Sf21 cells at 50 uM. As to conditions: values are per cent of control.
The target of assay [2] is Rho-associated protein kinase 2 (Rattus norvegicus) (UniProt Q62868). The assay can be described thus: Inhibition of rat ROCK2 expressed in Sf9 cells at 50 uM. As to conditions: values are per cent of control.
Chain of Rho-associated protein kinase 2 (Rattus norvegicus) (Q62868 whole entry, looked up): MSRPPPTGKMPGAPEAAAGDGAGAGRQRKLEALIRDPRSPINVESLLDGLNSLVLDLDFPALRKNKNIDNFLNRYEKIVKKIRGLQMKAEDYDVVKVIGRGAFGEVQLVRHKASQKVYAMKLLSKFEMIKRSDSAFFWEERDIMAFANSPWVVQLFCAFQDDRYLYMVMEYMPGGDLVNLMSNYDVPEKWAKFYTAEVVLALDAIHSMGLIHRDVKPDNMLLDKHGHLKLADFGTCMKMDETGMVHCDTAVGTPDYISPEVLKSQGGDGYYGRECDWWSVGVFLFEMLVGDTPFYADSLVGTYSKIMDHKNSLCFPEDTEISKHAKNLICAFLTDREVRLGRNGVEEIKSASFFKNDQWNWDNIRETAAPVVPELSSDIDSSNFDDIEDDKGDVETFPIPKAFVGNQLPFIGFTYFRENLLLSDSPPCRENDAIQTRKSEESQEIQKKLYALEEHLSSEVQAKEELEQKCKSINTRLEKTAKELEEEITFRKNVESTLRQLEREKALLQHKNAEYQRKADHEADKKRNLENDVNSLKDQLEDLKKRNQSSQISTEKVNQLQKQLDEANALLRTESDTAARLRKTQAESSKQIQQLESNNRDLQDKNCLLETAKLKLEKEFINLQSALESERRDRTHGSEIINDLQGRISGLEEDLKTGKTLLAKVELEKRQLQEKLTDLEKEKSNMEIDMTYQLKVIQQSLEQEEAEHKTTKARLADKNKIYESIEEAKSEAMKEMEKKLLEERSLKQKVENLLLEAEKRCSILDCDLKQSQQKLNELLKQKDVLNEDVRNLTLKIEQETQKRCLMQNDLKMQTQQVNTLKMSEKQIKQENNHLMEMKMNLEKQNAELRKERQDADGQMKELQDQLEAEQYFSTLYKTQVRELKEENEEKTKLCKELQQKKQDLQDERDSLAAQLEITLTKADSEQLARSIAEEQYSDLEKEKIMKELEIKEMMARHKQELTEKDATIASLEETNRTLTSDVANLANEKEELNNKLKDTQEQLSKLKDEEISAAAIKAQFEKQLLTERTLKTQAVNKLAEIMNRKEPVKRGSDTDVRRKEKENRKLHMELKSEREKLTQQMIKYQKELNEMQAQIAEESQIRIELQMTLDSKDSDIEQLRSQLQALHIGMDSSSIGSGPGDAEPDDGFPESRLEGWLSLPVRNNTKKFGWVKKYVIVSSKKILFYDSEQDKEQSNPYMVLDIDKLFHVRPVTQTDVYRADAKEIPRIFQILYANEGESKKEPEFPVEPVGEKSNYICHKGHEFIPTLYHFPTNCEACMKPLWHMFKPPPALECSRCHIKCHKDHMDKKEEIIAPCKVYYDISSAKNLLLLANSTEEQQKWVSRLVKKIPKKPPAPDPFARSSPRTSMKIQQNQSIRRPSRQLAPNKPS
The target in a further assay is Casein kinase II (Homo sapiens, UniProt P19784+P67870+P68400). The assay can be described thus: Inhibition of His-tagged human CK2 expressed in Sf9 cells.
Assay [3] has as its target Phosphatidylinositol 4,5-bisphosphate 3-kinase catalytic subunit alpha isoform (Bos taurus) (UniProt P32871). As to conditions: Sf9, 50 uM.
Description: Inhibition of His-tagged bovine PI3K expressed in Sf9 cells at 50 uM
The species named for assay [4] is Rattus norvegicus. The experiment in a line: Inhibition of rat liver AMPK at 50 uM; values are per cent of control.
The species named for assay [5] is Bos taurus. The experiment in a line: Inhibition of bovine heart PKA at 50 uM; values are per cent of control.
For assay [6], the species on record is Oryctolagus cuniculus. The experiment in a line: Inhibition of PHK from rabbit skeletal muscle at 50 uM; values are per cent of control. As to conditions: Muscle tissue.
The species entered for assay [7] is Oryctolagus cuniculus. The experiment in a line: Inhibition of MAPKAPK1b from rabbit skeletal muscle at 50 uM; values are per cent of control. As to conditions: Muscle tissue.
Assay [8] deals with RAC-alpha serine/threonine-protein kinase (Homo sapiens) (UniProt P31749). The assay can be described thus: Inhibition of human PKBalpha expressed in SF9 cells at 50 uM; values are per cent of control.
Chain of RAC-alpha serine/threonine-protein kinase (Homo sapiens) (P31749 whole entry): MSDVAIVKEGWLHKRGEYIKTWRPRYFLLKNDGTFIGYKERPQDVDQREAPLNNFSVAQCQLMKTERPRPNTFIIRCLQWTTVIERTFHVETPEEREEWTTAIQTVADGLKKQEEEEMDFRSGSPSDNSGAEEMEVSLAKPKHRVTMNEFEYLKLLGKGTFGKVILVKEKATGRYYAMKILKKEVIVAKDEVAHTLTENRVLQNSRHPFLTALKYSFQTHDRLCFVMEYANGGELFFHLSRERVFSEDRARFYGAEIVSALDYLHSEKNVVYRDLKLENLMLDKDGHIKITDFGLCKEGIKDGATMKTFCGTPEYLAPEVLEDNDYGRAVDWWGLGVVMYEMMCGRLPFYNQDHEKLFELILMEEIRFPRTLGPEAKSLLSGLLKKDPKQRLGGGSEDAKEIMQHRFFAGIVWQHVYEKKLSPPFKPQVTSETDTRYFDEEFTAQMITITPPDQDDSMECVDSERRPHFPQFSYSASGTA
For assay [9], the species on record is Oryctolagus cuniculus. The experiment in a line: Inhibition of rabbit MKK1 expressed in Escherichia coli at 50 uM; values are per cent of control.
Assay [10] addresses T1, Serine/threonine-protein kinase Sgk1 (Homo sapiens) (UniProt O00141).
T1 sequence (whole entry): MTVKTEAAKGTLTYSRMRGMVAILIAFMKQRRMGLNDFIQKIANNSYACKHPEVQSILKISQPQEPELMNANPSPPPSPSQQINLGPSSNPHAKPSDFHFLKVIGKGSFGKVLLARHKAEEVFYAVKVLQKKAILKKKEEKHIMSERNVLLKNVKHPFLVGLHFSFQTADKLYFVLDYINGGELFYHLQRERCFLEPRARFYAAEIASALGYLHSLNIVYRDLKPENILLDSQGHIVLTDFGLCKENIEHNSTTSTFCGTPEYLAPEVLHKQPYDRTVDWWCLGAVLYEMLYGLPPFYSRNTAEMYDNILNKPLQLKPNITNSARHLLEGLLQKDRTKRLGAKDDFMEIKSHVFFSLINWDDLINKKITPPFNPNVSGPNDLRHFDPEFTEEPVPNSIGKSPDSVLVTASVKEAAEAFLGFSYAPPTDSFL
The experiment in a line: Inhibition of His-tagged human SGK expressed in Sf9 cells at 50 uM; values are per cent of control.

Assay [11] has as its target T2, Casein kinase II (Homo sapiens) (UniProt P67870+P68400+P19784). The experiment in a line: Inhibition of His-tagged human CK2 expressed in Sf9 cells at 50 uM; values are per cent of control.
Assay [12] has as its target T3, Ribosomal protein S6 kinase alpha-5 (Homo sapiens, UniProt O75582). The experiment in a line: Inhibition of His-tagged human MSK1 expressed in Sf9 cells at 50 uM; values are per cent of control.
Assay [13] addresses T4, MAP kinase-activated protein kinase 5 (Homo sapiens) (UniProt Q8IW41).
T4 sequence (whole entry): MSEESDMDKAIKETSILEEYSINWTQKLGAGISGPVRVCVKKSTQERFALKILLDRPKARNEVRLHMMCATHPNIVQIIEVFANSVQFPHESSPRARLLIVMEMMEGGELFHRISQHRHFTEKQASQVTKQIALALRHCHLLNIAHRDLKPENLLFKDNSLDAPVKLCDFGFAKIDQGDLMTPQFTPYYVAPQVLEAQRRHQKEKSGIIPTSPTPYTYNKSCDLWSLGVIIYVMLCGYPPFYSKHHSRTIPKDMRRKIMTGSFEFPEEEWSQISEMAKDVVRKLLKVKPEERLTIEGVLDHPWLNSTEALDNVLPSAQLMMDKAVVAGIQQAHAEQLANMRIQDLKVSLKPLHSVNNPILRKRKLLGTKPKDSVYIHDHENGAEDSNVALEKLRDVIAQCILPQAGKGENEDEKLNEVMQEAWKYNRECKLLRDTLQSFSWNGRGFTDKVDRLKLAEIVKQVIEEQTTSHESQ
The assay can be described thus: Inhibition of His-tagged human PRAK expressed in Sf9 cells at 50 uM; values are per cent of control.

In assay [14] the target is T5, Glycogen synthase kinase-3 beta (Homo sapiens, UniProt P49841). The assay can be described thus: Inhibition of His-tagged human GSK3b expressed in Sf21 cells at 50 uM; values are per cent of control.
T5 sequence (P49841 whole entry, looked up): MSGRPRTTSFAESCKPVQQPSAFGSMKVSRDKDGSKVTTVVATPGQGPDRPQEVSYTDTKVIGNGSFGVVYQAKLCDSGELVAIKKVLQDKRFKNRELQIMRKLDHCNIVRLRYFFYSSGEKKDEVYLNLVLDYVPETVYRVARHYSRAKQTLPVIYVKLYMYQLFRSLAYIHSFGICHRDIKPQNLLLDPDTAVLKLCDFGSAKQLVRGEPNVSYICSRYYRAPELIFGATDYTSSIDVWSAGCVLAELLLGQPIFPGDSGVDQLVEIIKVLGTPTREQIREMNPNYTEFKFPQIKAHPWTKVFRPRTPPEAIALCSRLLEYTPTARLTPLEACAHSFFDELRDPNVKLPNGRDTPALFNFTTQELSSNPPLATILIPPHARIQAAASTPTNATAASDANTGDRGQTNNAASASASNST
For assay [15], the target named is T6, Ribosomal protein S6 kinase beta-1 (Homo sapiens, UniProt P23443). The experiment in a line: Inhibition of His-tagged human S6K1 expressed in Escherichia coli at 50 uM; values are per cent of control.
T6 sequence (P23443 whole entry, looked up): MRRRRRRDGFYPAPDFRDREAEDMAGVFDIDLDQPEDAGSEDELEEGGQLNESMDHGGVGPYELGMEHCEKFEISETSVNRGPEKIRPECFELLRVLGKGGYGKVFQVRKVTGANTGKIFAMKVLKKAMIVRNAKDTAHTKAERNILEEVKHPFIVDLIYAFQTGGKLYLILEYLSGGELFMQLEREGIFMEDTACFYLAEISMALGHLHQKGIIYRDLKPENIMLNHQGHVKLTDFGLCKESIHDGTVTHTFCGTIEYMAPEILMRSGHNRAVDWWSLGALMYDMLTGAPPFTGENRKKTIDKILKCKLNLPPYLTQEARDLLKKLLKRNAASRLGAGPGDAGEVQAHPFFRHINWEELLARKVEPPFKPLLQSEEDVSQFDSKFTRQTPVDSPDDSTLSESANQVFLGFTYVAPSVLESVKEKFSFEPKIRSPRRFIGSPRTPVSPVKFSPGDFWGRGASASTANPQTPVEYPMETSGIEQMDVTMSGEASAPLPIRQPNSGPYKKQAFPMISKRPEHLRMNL
Assay [16] has as its target T7, Serine/threonine-protein kinase Chk1 (Homo sapiens) (UniProt O14757).
T7 sequence (whole entry): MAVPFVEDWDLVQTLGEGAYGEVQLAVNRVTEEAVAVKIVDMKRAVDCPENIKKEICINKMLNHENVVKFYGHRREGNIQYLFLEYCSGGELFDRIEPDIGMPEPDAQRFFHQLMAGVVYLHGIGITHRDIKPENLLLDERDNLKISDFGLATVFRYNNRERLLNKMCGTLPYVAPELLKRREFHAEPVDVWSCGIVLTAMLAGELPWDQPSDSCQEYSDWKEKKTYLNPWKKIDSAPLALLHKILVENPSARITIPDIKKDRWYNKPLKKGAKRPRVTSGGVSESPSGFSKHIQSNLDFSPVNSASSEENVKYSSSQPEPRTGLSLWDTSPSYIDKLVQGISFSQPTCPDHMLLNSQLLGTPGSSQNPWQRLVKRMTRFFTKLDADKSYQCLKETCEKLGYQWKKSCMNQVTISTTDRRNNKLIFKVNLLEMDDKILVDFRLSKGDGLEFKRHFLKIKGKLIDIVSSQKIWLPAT
The assay can be described thus: Inhibition of His-tagged human CHK1 expressed in Escherichia coli at 50 uM; values are per cent of control.

Assay [17] has as its target T8, MAP kinase-activated protein kinase 2 (Homo sapiens, UniProt P49137). The experiment in a line: Inhibition of His-tagged human MAPKAPK2 expressed in Escherichia coli at 50 uM; values are per cent of control.
The target of assay [18] is Protein kinase C alpha type (Homo sapiens, UniProt P17252). The assay can be described thus: Inhibition of His-tagged human PKCalpha expressed in Escherichia coli at 50 uM; values are per cent of control.
In assay [19] the target is Mitogen-activated protein kinase 1 (Homo sapiens) (UniProt P28482). The experiment in a line: Inhibition of His-tagged human MAPK2/ERK2 expressed in Escherichia coli at 50 uM; values are per cent of control.
The target of assay [20] is Mitogen-activated protein kinase 11 (Homo sapiens) (UniProt Q15759). The assay can be described thus: Inhibition of His-tagged human SAPK2b/p38b2 expressed in Escherichia coli at 50 uM; values are per cent of control.
Chain of Mitogen-activated protein kinase 11 (Homo sapiens) (Q15759 whole entry): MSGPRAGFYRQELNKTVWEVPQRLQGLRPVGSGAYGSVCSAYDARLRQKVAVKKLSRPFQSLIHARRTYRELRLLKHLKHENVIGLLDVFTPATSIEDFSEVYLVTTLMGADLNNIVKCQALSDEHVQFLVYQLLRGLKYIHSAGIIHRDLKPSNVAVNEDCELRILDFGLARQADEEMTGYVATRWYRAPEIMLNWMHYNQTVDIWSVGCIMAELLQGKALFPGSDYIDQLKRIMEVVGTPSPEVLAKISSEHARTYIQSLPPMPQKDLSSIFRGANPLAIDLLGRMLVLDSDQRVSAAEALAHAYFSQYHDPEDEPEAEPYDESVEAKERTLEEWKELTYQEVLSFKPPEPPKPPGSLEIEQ
In assay [21] the target is Mitogen-activated protein kinase 8 (Homo sapiens) (UniProt P45983). The experiment in a line: Inhibition of His-tagged human JNK1a1/SAPK1c expressed in Escherichia coli at 50 uM; values are per cent of control.
Chain of Mitogen-activated protein kinase 8 (Homo sapiens) (P45983 whole entry): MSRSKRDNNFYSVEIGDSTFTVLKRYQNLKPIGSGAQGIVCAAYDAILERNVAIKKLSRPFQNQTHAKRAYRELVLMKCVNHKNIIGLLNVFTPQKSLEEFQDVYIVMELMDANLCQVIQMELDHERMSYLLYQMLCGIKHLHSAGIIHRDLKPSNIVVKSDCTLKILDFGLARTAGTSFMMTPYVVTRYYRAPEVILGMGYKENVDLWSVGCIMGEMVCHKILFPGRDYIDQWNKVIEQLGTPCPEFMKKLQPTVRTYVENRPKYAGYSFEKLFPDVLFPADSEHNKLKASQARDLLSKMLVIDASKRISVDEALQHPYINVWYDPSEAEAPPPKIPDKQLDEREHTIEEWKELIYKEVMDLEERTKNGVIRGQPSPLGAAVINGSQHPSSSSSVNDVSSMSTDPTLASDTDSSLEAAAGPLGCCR
The target in assay [22] is T9, Mitogen-activated protein kinase 13 (Homo sapiens) (UniProt O15264).
T9 sequence (whole entry): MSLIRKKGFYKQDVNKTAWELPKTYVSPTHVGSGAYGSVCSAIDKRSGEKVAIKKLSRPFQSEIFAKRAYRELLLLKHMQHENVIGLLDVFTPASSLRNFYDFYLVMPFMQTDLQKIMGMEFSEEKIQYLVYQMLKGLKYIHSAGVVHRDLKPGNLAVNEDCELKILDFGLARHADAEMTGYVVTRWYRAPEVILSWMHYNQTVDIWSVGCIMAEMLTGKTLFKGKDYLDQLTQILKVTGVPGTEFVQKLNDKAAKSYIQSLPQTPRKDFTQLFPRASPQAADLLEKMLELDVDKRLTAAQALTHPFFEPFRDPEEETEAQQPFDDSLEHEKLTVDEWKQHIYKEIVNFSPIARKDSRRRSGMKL
The assay can be described thus: Inhibition of His-tagged human SAPK4/p38delta expressed in Escherichia coli at 50 uM; values are per cent of control.

For a further assay, the species on record is Homo sapiens. The assay can be described thus: Inhibition of His-tagged human CAMK2 expressed in Escherichia coli at 10 uM.
The target in assay [23] is Myosin light chain kinase, smooth muscle (Gallus gallus) (UniProt P11799). The experiment in a line: Inhibition of chicken SmMLCK expressed in Escherichia coli at 10 uM. As to conditions: Ovis aries.
The nature of assay [24]: Inhibition of His-tagged human CAMK2 expressed in Escherichia coli.
The species entered for assay [25] is Oryctolagus cuniculus. As to conditions: at 10 µM.
Description: Inhibition of rabbit MKK1 expressed in Escherichia coli at 10 uM
Assay [26] has as its target Mitogen-activated protein kinase 1 (Homo sapiens) (UniProt P28482). As to conditions: at 10 µM.
Description: Inhibition of Gst-tagged human MAPK2/ERK2 expressed in Escherichia coli at 10 uM
Assay [27] deals with Mitogen-activated protein kinase 8 (Homo sapiens) (UniProt P45983). As to conditions: at 10 µM.
Description: Inhibition of Gst-tagged human JNK1a1 expressed in Escherichia coli at 10 uM
The target in assay [28] is Mitogen-activated protein kinase 11 (Homo sapiens) (UniProt Q15759). As to conditions: at 10 µM.
Description: Inhibition of Gst-tagged human SAPK2b/p38--beta-2 expressed in Escherichia coli at 10 uM
Assay [29] has as its target T9, Mitogen-activated protein kinase 13 (Homo sapiens). As to conditions: at 10 µM.
Description: Inhibition of Gst-tagged human SAPK4/p38delta expressed in Escherichia coli at 10 uM
The species entered for assay [30] is Oryctolagus cuniculus. As to conditions: Muscle tissue, at 10 µM.
Description: Inhibition of MAPKAPK1b from rabbit skeletal muscle at 10 uM
The target in assay [31] is T8, MAP kinase-activated protein kinase 2. As to conditions: at 10 µM.
Description: Inhibition of Gst-tagged human MAPKAPK2 expressed in Escherichia coli at 10 uM
In assay [32] the target is T3, Ribosomal protein S6 kinase alpha-5. As to conditions: Sf9, at 10 µM.
Description: Inhibition of His-tagged human MSK1 expressed in Sf9 cells at 10 uM
The target of assay [33] is T4, MAP kinase-activated protein kinase 5 (Homo sapiens). As to conditions: Sf9, at 10 µM.
Description: Inhibition of His-tagged human PRAK expressed in Sf9 cells at 10 uM
Assay [34] is filed under the species Bos taurus. As to conditions: at 10 µM.
Description: Inhibition of bovine heart PKA at 10 uM
Assay [35] has as its target 3-phosphoinositide-dependent protein kinase 1 (Homo sapiens) (UniProt O15530). As to conditions: Sf21, at 10 µM.
In assay [36] the target is RAC-alpha serine/threonine-protein kinase (Homo sapiens) (UniProt P31749). As to conditions: Sf9, at 10 µM.
Description: Inhibition of human PKBalpha expressed in SF9 cells at 10 uM
Assay [37] concerns the target T1, Serine/threonine-protein kinase Sgk1 (Homo sapiens). As to conditions: Sf9, at 10 µM.
Description: Inhibition of His-tagged human SGK expressed in Sf9 cells at 10 uM
Assay [38] addresses T6, Ribosomal protein S6 kinase beta-1. As to conditions: at 10 µM.
Description: Inhibition of His-tagged human S6K1 expressed in Escherichia coli at 10 uM
In assay [39] the target is T5, Glycogen synthase kinase-3 beta. As to conditions: Sf21, at 10 µM.
Description: Inhibition of His-tagged human GSK3b expressed in Sf21 cells at 10 uM
The target in assay [40] is Rho-associated protein kinase 2 (Rattus norvegicus) (UniProt Q62868). As to conditions: Sf9, at 10 µM.
Description: Inhibition of rat ROCK2 expressed in Sf9 cells at 10 uM
For assay [41], the species on record is Rattus norvegicus. As to conditions: at 10 µM.
Description: Inhibition of rat liver AMPK at 10 uM
For assay [42], the target named is T2, Casein kinase II (Homo sapiens). As to conditions: Sf9, at 10 µM.
Description: Inhibition of His-tagged human CK2 expressed in Sf9 cells at 10 uM
Assay [43] is filed under the species Oryctolagus cuniculus. As to conditions: Muscle tissue, at 10 µM. This is another data set of the same source.
Description: Inhibition of PHK from rabbit skeletal muscle at 10 uM
The target in assay [44] is Tyrosine-protein kinase Lck (Homo sapiens) (UniProt P06239). As to conditions: Sf9, at 10 µM.
Description: Inhibition of His-tagged human LCK expressed in Sf9 cells at 10 uM
Assay [45] addresses T7, Serine/threonine-protein kinase Chk1 (Homo sapiens). As to conditions: at 10 µM.
Description: Inhibition of His-tagged human CHK1 expressed in Escherichia coli at 10 uM

T3 sequence (O75582 whole entry, looked up): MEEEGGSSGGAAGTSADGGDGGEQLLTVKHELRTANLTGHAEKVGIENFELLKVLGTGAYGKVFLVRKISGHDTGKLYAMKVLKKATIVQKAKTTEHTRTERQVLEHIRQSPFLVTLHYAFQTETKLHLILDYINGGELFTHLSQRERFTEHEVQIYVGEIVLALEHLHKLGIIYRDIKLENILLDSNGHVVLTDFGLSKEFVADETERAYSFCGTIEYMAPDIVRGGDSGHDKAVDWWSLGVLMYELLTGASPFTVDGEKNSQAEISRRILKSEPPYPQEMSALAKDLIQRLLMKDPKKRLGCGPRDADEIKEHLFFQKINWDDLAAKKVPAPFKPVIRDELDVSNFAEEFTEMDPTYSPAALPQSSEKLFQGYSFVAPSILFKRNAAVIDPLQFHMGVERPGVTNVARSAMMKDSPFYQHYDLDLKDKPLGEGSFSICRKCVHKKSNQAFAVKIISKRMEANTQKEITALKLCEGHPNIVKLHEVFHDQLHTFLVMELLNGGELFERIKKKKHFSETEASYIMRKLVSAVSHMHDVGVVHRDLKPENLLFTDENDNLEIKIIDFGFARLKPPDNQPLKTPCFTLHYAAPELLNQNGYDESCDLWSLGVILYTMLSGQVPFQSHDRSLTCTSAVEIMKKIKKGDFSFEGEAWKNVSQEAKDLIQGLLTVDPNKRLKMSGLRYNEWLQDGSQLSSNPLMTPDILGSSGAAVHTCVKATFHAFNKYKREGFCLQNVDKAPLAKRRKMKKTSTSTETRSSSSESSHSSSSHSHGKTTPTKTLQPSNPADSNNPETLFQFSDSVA
T8 sequence (P49137 whole entry, looked up): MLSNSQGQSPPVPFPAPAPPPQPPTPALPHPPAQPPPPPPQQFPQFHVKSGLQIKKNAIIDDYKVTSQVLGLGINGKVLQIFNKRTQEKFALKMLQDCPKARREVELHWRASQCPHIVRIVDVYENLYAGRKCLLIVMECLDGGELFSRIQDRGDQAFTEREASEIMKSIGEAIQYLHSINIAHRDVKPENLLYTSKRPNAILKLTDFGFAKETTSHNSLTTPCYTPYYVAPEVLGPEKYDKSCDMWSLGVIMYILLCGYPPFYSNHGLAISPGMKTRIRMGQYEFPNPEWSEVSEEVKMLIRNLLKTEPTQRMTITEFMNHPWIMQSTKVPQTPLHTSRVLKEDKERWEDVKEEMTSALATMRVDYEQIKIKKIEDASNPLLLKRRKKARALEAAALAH

As to `O=c1cc(N2CCOCC2)oc2c(-c3ccccc3)cccc12` [LY-294002], the residual activity turned out to be 76% in [1]; 104% in assay [2]; 13% in [3]; 103% in the assay listed under Rattus norvegicus [4]; 91% in the assay filed under Bos taurus [5]; 60% in [8]. Further, the residual activity came out at 101% in the assay filed under Oryctolagus cuniculus [9]; 72% in assay [10]; 18% in assay [11]; 83% in [12]; 68% in assay [13]; 53% in assay [14]. In addition, the residual activity came to 81% in assay [15]; 90% in assay [16]; 74% in assay [17]; 91% in assay [18]; 114% in assay [19]; 98% in assay [20]. The residual activity in [21] is 108%; in [22] it was 94%. Further, the IC50 against Casein kinase II is 6.9 µM. The level, % of control was 44% in the assay listed under Oryctolagus cuniculus [6] and 70% in the assay listed under Oryctolagus cuniculus [7].

For `CN([C@@H](Cc1ccc(OS(=O)(=O)c2cccc3cnccc23)cc1)C(=O)N1CCN(c2ccccc2)CC1)S(=O)(=O)c1cccc2cnccc12`, the values for the inhibition (in the assay filed under Homo sapiens; in assay [23]) were 0% and 96%, respectively. Also, the midpoint of inhibition in assay [24], the IC50, lay at 0.5 µM. The residual activity in the assay filed under Oryctolagus cuniculus [25] was 101%; in assay [26] it was 92%; in [27], 104%; in assay [28], 98%; in [29], 110%; in assay [31], 59%. For the same compound, the residual activity in assay [32] is 81%; in [33], 36%; in the assay filed under Bos taurus [34], 94%; in [35] it was 70%; in [36] it was 67%; in [37] it was 78%. The residual activity was found to be 93% in assay [38]; 38% in assay [39]; 88% in [40]; 97% in the assay listed under Rattus norvegicus [41]; 103% in assay [42]; 92% in assay [44]. The residual activity in assay [45] is 104%. In addition, the level, % of control is 89% in the assay listed under Oryctolagus cuniculus [30] and 106% in the assay filed under Oryctolagus cuniculus [43].
